From patent US8680159B2, “Bradykinin 1 receptor modulating compounds” (Gruenenthal GmbH, priority 2010, dated 2014) come the findings set out here.

The structures appear in SMILES notation. Like-named read-outs stand apart in the source and are kept apart here.

Test [1] has as its target T1, human B1R receptor (CHO K1 cells stably transfected with the human B1R gene) (Homo sapiens, UniProt P46663).
T1 construct: expressed in transfected cells; host or cells: CHO K1 cells (Chinese hamster ovary), stably transfected
T1 sequence (P46663 1-353): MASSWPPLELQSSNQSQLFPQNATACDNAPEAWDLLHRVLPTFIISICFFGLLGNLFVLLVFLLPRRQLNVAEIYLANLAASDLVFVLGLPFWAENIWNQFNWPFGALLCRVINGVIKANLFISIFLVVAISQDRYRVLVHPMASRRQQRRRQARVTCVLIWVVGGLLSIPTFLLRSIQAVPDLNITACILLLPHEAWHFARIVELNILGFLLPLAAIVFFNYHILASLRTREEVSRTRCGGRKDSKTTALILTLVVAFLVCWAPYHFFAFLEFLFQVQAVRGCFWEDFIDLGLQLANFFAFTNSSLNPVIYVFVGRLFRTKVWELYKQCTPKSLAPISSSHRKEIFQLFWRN
Kind of test: Functional study on the bradykinin receptor 1 (B1R), Ca2+ fluorescence (Fluo-4) FLIPR/Novostar assay, hB1R cells. Type of test: cell-based. In a few lines:
(§1)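 Test compounds (10 μM) were added first and the Ca2+ rise was scored as % activation against Lys-Des-Arg9-bradykinin (≥50 nM, human) or Des-Arg9-bradykinin (≥1 μM, rat). After 6-20 min, the matching agonist was given at its EC80, and % inhibition relative to maximal achievable inhibition was calculated.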

Test [2] deals with T2, B1R receptor of the rat (CHO K1 cells stably transfected with the B1R gene of the rat) (Rattus norvegicus, UniProt P97583).
T2 construct: expressed in transfected cells; host or cells: CHO K1 cells (Chinese hamster ovary), stably transfected
T2 sequence (P97583 1-337): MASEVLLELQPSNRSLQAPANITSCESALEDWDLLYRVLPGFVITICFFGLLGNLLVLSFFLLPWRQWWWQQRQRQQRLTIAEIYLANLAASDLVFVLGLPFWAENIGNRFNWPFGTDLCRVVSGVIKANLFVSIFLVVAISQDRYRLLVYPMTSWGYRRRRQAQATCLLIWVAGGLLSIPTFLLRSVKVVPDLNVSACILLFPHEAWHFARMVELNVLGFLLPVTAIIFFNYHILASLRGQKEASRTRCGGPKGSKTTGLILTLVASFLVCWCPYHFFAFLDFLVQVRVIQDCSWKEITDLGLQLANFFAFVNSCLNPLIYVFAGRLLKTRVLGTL
As to the kind of experiment: Functional study on the bradykinin receptor 1 (B1R), Ca2+ fluorescence (Fluo-4) FLIPR/Novostar assay, rB1R cells. In kind it is cell-based. Particulars: for inhibition at 10 µM: CHO-K1, 10 μM. A digest of the protocol: as §1

[3] abbreviates: CHO-K1, read-out: % inhibition (human B1R) at 10 μM.
[4] abbreviates: read-out: % inhibition (rat B1R) at 10 μM.
The mark [5] stands for this setting: CHO-K1, read-out: % Inhibition (h-B1R) at 10 μM.
Setting [6] is: read-out: % Inhibition (r-B1R) at 10 μM.

What is called inhibition is the drop in the measured response relative to a control, in per cent. Consider `Cc1cc(N2CC(N(C)C(=O)c3ccc4c(c3)[C@H](N3Cc5cccc(Cl)c5C3=O)CC4)C2)ccn1` [Example H-161, (3R)-3-(4-Chloro-3-oxo-1,2-dihydro-isoindol-2-yl)-N-methyl-N-[1-(2-methyl-pyridin-4-yl)-azetidin-3-yl]-2,3-dihydro-1H-indene-5-carboxylic acid amide], for which the inhibition at 10 µM in test [1] (setting [3]) came out at 99%; in test [2] (setting [4]) it was 111%.
Take `CN(C(=O)c1ccc2c(c1)[C@H](NC(=O)c1ccccc1Cl)CC2)C1CCN(c2ncnc3ccccc23)CC1` [Example H-127, (3R)-3-[(2-Chloro-benzoyl)amino]-N-methyl-N-(1-quinazolin-4-yl-piperidin-4-yl)-2,3-dihydro-1H-indene-5-carboxylic acid amide]: the inhibition at 10 µM in test [1] (setting [3]) was 96%; in test [2] (setting [4]), 91%.
The like results for `Cc1cc(N2CCC(N(C)C(=O)c3ccc4c(c3)[C@H](NC(=O)c3ccccc3Cl)CC4)CC2)nc(C)n1` [Example H-59, (3R)-3-[(2-Chloro-benzoyl)amino]-N-[1-(2,6-dimethyl-pyrimidin-4-yl)-piperidin-4-yl]-N-methyl-2,3-dihydro-1H-indene-5-carboxylic acid amide] were, in that order, 99% and 103%.
The like results for `CN(C(=O)c1ccc2c(c1)[C@H](NC(=O)c1ccccc1Cl)CC2)C1CCN(c2ccncc2)C1` (stereo partly drawn) [Example H-39, (3R)-3-[(2-Chloro-benzoyl)amino]-N-methyl-N-(1-pyridin-4-yl-pyrrolidin-3-yl)-2,3-dihydro-1H-indene-5-carboxylic acid amide] were, in that order, 100% and 100%.
On to `CN(C(=O)c1ccc2c(c1)CCC2NC(=O)CCC1CCCC1)C1CCN(c2ccncc2)CC1` (stereo not shown) [CC_H-65, 1-(3-Cyclopentyl-propanoylamino)-N-methyl-N-(1-pyridin-4-yl-piperidin-4-yl)-2,3-dihydro-1H-indene-5-carboxylic acid amide], for which the inhibition at 10 µM in test [1] (setting [5]) was 98%; in test [2] (setting [6]), 48%.
Regarding `CN(C(=O)c1ccc2c(c1)C(N(C)C(=O)c1cc(F)ccc1Cl)CC2)C1CCN(c2ccncc2)CC1` (stereo not shown) [CC_H-27, 3-[(2-Chloro-5-fluoro-benzoyl)-methyl-amino]-N-methyl-N-(1-pyridin-4-yl-piperidin-4-yl)-2,3-dihydro-1H-indene-5-carboxylic acid amide], the inhibition at 10 µM in test [1] (setting [5]) was 100%. Further, the “% Inhibition (r-B1R) at 10 μM” value in test [2] was found to be 104%.
With `CN(C(=O)c1ccc2c(c1)[C@H](NC(=O)c1ccccc1Cl)CC2)C1CCN(c2ccnc(C#N)c2)CC1` [Example H-123, (3R)-3-[(2-Chloro-benzoyl)amino]-N-[1-(2-cyano-pyridin-4-yl)-piperidin-4-yl]-N-methyl-2,3-dihydro-1H-indene-5-carboxylic acid amide], the inhibition at 10 µM was 97% in test [1] (setting [3]) and 107% in test [2] (setting [4]).
For `CN1CCC(N2CCC(N(C)C(=O)c3ccc4c(c3)[C@H](NC(=O)c3ccccc3Cl)CC4)CC2)CC1` [Example H-40, (3R)-3-[(2-Chloro-benzoyl)amino]-N-methyl-N-[1-(1-methyl-piperidin-4-yl)-piperidin-4-yl]-2,3-dihydro-1H-indene-5-carboxylic acid amide], the inhibition at 10 µM in test [1] (setting [3]) stood at 52%; in test [2] (setting [4]), 73%.
The like results for `CC(C)CC(=O)N[C@@H]1CCc2ccc(C(=O)N(C)C3CCN(c4ccncc4)CC3)cc21` [Example H-28, (3R)-N-Methyl-3-(3-methyl-butanoylamino)-N-(1-pyridin-4-yl-piperidin-4-yl)-2,3-dihydro-1H-indene-5-carboxylic acid amide] were, in that order, 100% and 100%.
On to `O=C(NC1CCN(c2ccncc2)CC1)c1ccc2c(c1)[C@H](NC(=O)c1ccccc1Cl)CC2` [Example H-07, (3R)-3-[(2-Chloro-benzoyl)amino]-N-(1-pyridin-4-yl-piperidin-4-yl)-2,3-dihydro-1H-indene-5-carboxylic acid amide], for which the inhibition at 10 µM turned out to be 43% in test [1] (setting [3]) and 96% in test [2] (setting [4]).
`CN(C(=O)c1ccc2c(c1)C(NC(=O)c1c(Cl)cccc1C(F)(F)F)CC2(C)C)C1CCN(c2ccncc2)CC1` (stereo not shown) [CC_H-17, 3-[[2-Chloro-6-(trifluoromethyl)-benzoyl]amino]-N,1,1-trimethyl-N-(1-pyridin-4-yl-piperidin-4-yl)-2,3-dihydro-indene-5-carboxylic acid amide]: the inhibition at 10 µM in test [1] (setting [5]) is 98%. Besides, the “% Inhibition (r-B1R) at 10 μM” value in test [2] is 104%.
As to `Cc1cc(N2CCC(N(C)C(=O)c3ccc4c(c3)[C@H](N(C)C(=O)c3ccccc3Cl)CC4)CC2)nc(C)n1` [Example H-149, (3R)-3-[(2-Chloro-benzoyl)-methyl-amino]-N-[1-(2,6-dimethyl-pyrimidin-4-yl)-piperidin-4-yl]-N-methyl-2,3-dihydro-1H-indene-5-carboxylic acid amide], the inhibition at 10 µM in test [1] (setting [3]) is 100%; in test [2] (setting [4]), 101%.
Take `Cc1cc(N2CCC(N(C)C(=O)c3ccc4c(c3)[C@H](N(C)C(=O)c3ccc(F)cc3Cl)CC4)CC2)nc(C)n1` [Example H-168, (3R)-3-[(2-Chloro-4-fluoro-benzoyl)-methyl-amino]-N-[1-(2,6-dimethyl-pyrimidin-4-yl)-piperidin-4-yl]-N-methyl-2,3-dihydro-1H-indene-5-carboxylic acid amide]: the values for the inhibition at 10 µM in test [1] (setting [3]) and in test [2] (setting [4]) were 100% and 104%, respectively.
The like results for `Cc1cc(N2CCC(N(C)C(=O)c3ccc4c(c3)[C@H](N(C(=O)c3ccccc3Cl)C(C)C)CC4)CC2)nc(C(C)C)n1` [Example H-166, (3R)-3-[(2-Chloro-benzoyl)-isopropyl-amino]-N-[1-(2-isopropyl-6-methyl-pyrimidin-4-yl)-piperidin-4-yl]-N-methyl-2,3-dihydro-1H-indene-5-carboxylic acid amide] were, in that order, 100% and 55%.
Consider `Cc1cc(N2CCC(N(C)C(=O)c3ccc4c(c3)[C@H](N(C)C(=O)c3ccccc3C)CC4)CC2)nc(C)n1` [Example H-169, (3R)-N-[1-(2,6-Dimethyl-pyrimidin-4-yl)-piperidin-4-yl]-N-methyl-3-[methyl-(2-methyl-benzoyl)-amino]-2,3-dihydro-1H-indene-5-carboxylic acid amide], for which the values for the inhibition at 10 µM in test [1] (setting [3]) and in test [2] (setting [4]) were 100% and 106%, respectively.
As to `CCN(C(=O)c1ccc2c(c1)[C@H](NC(=O)c1ccccc1Cl)CC2)C1CCN(c2ccnc(C)c2)CC1` [Example H-79, (3R)-3-[(2-Chloro-benzoyl)amino]-N-ethyl-N-[1-(2-methyl-pyridin-4-yl)-piperidin-4-yl]-2,3-dihydro-1H-indene-5-carboxylic acid amide], the inhibition at 10 µM in test [1] (setting [3]) stood at 100%; in test [2] (setting [4]) it was 110%.
The like results for `CN(C(=O)c1ccc2c(c1)[C@H](NC(=O)CC(F)(F)F)CC2)C1CCN(c2ccncc2)CC1` [Example H-63, (3R)-N-Methyl-N-(1-pyridin-4-yl-piperidin-4-yl)-3-(3,3,3-trifluoro-propanoylamino)-2,3-dihydro-1H-indene-5-carboxylic acid amide] were, in that order, 100% and 96%.
The like results for `Cc1cc(N2CCC(N(C)C(=O)c3ccc4c(c3)[C@H](NC(=O)CC(C)C)CC4)CC2)nc(C)n1` [Example H-86, (3R)-N-[1-(2,6-Dimethyl-pyrimidin-4-yl)-piperidin-4-yl]-N-methyl-3-(3-methyl-butanoylamino)-2,3-dihydro-1H-indene-5-carboxylic acid amide] were, in that order, 100% and 98%.
For the compound `CN(C(=O)c1ccc2c(c1)C(NC(=O)c1cccc(Cl)c1Cl)CCC2)C1CCN(c2ccncc2)CC1` (stereo not shown) [CC_H-03, 8-[(2,3-Dichloro-benzoyl)amino]-N-methyl-N-(1-pyridin-4-yl-piperidin-4-yl)-5,6,7,8-tetrahydro-naphthalene-2-carboxylic acid amide], the values for the inhibition at 10 µM in test [1] (setting [5]) and in test [2] (setting [6]) were 99% and 103%, respectively.
As for `Cc1cc(N2CCC(CN(C)C(=O)c3ccc4c(c3)[C@H](NC(=O)c3ccccc3Cl)CC4)CC2)ccn1` [Example H-49, (3R)-3-[(2-Chloro-benzoyl)amino]-N-methyl-N-[[1-(2-methyl-pyridin-4-yl)-piperidin-4-yl]-methyl]-2,3-dihydro-1H-indene-5-carboxylic acid amide], the inhibition at 10 µM in test [1] (setting [3]) worked out at 85%; in test [2] (setting [4]), 101%.
